Data on seven molecules can be found in ChEMBL document CHEMBL1201862, “PubChem BioAssay data set” (2004).

In one assay the test system is Staphylococcus aureus. Description: Inhibitors of Bacterial Quorum Sensing Structure Activity Relationship (SAR) Analysis: Dose Response Assay. [Related pubchem assays: 700, 527 ]. Type of assay: functional, organism-based.
The target in assay [1] is Transitional endoplasmic reticulum ATPase (Homo sapiens, UniProt P55072). As to the kind of experiment: p97 ATPase inhibitors, dose response, biochemical (AID 1534).
Chain of Transitional endoplasmic reticulum ATPase (Homo sapiens, UniProt P55072) (P55072 whole entry): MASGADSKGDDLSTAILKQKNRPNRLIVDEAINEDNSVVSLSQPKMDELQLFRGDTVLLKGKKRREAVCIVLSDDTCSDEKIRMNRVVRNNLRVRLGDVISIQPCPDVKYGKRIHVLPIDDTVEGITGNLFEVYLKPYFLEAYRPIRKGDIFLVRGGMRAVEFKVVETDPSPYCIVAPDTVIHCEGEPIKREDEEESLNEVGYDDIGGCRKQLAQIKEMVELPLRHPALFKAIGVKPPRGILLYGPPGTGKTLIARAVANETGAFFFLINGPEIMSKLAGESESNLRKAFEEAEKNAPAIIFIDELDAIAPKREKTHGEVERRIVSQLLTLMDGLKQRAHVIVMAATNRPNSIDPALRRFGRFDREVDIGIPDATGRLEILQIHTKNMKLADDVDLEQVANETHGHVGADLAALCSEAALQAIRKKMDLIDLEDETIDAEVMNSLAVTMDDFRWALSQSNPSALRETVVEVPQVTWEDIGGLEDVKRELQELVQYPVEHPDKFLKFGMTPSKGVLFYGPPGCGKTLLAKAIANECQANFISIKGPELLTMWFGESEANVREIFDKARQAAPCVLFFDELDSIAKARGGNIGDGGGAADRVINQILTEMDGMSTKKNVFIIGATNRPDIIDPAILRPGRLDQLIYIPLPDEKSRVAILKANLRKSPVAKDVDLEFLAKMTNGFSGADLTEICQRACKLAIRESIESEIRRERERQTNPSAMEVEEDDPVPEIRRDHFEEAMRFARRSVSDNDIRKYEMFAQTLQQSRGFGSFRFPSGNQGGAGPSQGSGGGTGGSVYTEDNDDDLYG
The target of assay [2] is Transitional endoplasmic reticulum ATPase (Homo sapiens, UniProt P55072, C522A). Description: C522A mutant p97 ATPase inhibitors, dose response, counter-screen for p97 inhibitor project, biochemical, luminescence (AID 1544). Background: The purpose of a counterscreen is to sort out artefacts and off-target activity.
Chain of Transitional endoplasmic reticulum ATPase (Homo sapiens, UniProt P55072, C522A) (P55072 2-806 C522A limits assumed): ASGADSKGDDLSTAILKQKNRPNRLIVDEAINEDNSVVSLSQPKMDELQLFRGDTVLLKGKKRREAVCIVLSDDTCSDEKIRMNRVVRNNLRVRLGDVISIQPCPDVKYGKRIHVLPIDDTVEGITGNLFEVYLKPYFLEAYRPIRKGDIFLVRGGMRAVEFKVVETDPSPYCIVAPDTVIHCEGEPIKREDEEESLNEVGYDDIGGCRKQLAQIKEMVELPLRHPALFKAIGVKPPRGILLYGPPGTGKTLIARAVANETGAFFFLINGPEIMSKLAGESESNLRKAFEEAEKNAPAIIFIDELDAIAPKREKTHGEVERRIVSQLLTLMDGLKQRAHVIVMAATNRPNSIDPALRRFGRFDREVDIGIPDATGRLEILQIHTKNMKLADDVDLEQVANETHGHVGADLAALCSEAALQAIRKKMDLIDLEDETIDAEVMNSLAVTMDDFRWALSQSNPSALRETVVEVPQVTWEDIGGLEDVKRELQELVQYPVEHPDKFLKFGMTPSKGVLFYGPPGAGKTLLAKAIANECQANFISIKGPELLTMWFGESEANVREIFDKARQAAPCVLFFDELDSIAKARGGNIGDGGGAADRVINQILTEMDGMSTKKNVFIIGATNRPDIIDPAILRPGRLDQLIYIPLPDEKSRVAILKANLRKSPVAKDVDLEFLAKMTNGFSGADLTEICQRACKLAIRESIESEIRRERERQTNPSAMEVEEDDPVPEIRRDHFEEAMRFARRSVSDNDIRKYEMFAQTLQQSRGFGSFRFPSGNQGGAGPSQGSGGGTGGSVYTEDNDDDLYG
In assay [3] the target is Peroxisome proliferator-activated receptor gamma/Nuclear receptor corepressor 2 (Homo sapiens, UniProt P37231+Q9Y618). Type of assay: functional.
Assay [4] has as its target Photoreceptor-specific nuclear receptor (Homo sapiens, UniProt Q9Y5X4). Type of assay: functional.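 Note: potency for compounds that break the NR2E3 corepressor complex and count as activators.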
Assay [5] addresses Lysosomal acid glucosylceramidase (Homo sapiens, UniProt P04062). As to the kind of experiment: Dose response cell-based high throughput screening assay to identify enhancers of beta-glucosidase activity. [Related pubchem assays: 784 ]. Type of assay: functional.
A short description of assay [6]: cells. Type of assay: functional, cell-based.
Assay [7] in a line: cells. Type of assay: functional, cell-based. This is another data set of the same source.
Assay [8] in a line: cells. Type of assay: functional.
For the next assay, the system named is INS1. Description: INS-1E survival protection against cytokine death – cell-based, luminescence, retest, dose response (AID 449756).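 Note: cell death triggered by IL-1 beta plus TNF-alpha plus IFN-gamma mixture; protective hits raise ATP signal compared with cytokine alone wells.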 Type of assay: functional. To be noted: Rattus norvegicus.
A short description of assay [9]: viability of PTEN-deleted HCT116 cells – cell-based, HCT116 PTEN knockout, dose response (AID 1047).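 Note: HCT116 colon tumor cells with PTEN knocked out; cells exposed to compound for 60 hours before readout; potency for loss of cell viability measured by luminescence.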 Type of assay: functional.
The next assay concerns the target Wee1-like protein kinase (Homo sapiens, UniProt P30291). Description: Dose Response Cell-based Assay for Inhibitors of Wee1 Degradation. [Related pubchem assays: 1410, 1321 ]. Type of assay: functional.
For assay [10], the target named is T1, Calpain-2 catalytic subunit (Sus scrofa, UniProt P43367).
T1 sequence (P43367 whole entry): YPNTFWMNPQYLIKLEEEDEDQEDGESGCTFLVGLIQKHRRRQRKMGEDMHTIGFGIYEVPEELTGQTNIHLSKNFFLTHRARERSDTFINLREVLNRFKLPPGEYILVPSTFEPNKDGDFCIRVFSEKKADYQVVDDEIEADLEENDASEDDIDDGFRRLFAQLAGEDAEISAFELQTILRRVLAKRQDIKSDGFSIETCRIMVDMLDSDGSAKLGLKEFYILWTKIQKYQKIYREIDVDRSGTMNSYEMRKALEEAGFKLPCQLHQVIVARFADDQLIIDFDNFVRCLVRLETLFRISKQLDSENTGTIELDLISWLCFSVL
Description: m-calpain protease blockers, concentration series – biochemical, fluorogenic peptide substrate, dose response (AID 1420). Type of assay: functional.

The nature of assay [11]: HepG2 cell cytotoxicity, dose response, cytotoxicity control for non-replicating M. tuberculosis project (AID 489018). Type of assay: functional. To be noted: Mycobacterium tuberculosis.
The target of assay [12] is G2/mitotic-specific cyclin-B1 (Homo sapiens, UniProt P14635). Description: Counterscreen assay for inhibitors of Wee1 degradation: dose response cell-based assay to identify inhibitors of cyclin B degradation. [Related pubchem assays: 1410, 1321 ]. Type of assay: functional.
Chain of G2/mitotic-specific cyclin-B1 (P14635 whole entry): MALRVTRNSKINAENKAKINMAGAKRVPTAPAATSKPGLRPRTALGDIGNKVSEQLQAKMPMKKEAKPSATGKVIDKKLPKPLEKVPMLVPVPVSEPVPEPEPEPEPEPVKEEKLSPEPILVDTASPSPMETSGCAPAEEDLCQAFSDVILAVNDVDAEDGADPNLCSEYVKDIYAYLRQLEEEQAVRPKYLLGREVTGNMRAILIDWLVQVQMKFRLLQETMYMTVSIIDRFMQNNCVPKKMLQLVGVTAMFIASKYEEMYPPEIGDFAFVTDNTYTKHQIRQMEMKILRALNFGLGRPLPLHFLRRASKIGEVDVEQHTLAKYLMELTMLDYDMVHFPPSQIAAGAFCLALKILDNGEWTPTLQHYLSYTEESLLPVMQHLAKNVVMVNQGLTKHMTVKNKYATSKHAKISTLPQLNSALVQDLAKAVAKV
A short description of assay [13]: THP-1 cell cytotoxicity, dose response, cytotoxicity control for non-replicating M. tuberculosis project (AID 489025). Type of assay: functional.
Assay [14] can be described thus: microbe, parasite or virus in culture. Type of assay: functional. To be noted: Mycobacterium tuberculosis.
Assay [15] is described as follows: HPDE-C7 pancreatic duct cell viability loss – fluorescence, HTS (AID 430). Type of assay: functional, cell-based. To be noted: Homo sapiens.
Assay [16] is described as follows: viability loss of HPDE-C7K cells – cell-based, fluorescence, HTS, primary screen (AID 431). To be noted: Homo sapiens. Type of assay: functional.
The nature of assay [17]: Vero E6 cell cytotoxicity, dose response, cytotoxicity control for non-replicating M. tuberculosis project, secondary assay (AID 492998). To be noted: Vero C1008. Type of assay: functional, VeroE6.
Assay [18] in a line: viability of HCT116 lacking mutant beta-catenin – cell-based, human colon tumor, dose response (AID 1045).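 Note: HCT116 colon tumor cells with beta catenin knocked out; cells exposed to compound for 60 hours.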 Type of assay: functional.
In assay [19] the target is T2, Eukaryotic translation initiation factor 2-alpha kinase 3 (Homo sapiens, UniProt Q9NZJ5). As to the kind of experiment: Dose response cell-based high-throughput screening assay to measure PERK inhibition. [Related pubchem assays: 1416 ]. Type of assay: functional.
T2 sequence (Q9NZJ5 whole entry): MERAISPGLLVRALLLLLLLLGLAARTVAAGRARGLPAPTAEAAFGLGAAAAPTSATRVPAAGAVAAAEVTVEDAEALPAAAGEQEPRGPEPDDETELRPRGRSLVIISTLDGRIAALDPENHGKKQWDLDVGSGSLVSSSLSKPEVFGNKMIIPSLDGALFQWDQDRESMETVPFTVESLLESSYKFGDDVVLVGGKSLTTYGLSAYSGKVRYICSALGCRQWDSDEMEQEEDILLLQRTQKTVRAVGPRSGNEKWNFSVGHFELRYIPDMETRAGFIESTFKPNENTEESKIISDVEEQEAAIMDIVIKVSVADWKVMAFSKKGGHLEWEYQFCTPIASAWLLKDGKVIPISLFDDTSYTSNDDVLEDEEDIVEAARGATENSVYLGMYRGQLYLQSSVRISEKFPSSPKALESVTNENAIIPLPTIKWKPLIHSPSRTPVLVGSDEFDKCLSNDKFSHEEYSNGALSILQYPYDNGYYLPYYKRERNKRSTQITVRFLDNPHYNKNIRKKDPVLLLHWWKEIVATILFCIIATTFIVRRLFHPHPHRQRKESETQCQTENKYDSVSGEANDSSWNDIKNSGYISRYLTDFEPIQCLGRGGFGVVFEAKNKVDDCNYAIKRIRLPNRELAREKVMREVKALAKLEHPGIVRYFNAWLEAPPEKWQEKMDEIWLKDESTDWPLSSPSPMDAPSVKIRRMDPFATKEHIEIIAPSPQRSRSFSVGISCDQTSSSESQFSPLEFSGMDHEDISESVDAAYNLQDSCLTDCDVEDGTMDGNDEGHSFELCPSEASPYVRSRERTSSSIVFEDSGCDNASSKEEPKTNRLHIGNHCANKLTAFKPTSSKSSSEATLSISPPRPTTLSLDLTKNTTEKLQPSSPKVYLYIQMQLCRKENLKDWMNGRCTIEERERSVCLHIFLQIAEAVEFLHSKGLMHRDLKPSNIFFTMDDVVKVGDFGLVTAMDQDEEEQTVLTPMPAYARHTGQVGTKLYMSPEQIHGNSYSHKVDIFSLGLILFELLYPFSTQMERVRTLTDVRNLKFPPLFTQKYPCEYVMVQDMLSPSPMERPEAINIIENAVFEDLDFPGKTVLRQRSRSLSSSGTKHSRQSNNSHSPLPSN
Assay [20] concerns the target T2, Eukaryotic translation initiation factor 2-alpha kinase 3. Description: Counterscreen assay for PERK inhibitors: Dose response cell-based high throughput screening assay to measure inhibition of PERK at 6 hours. [Related pubchem assays: 1522, 1416 ]. Type of assay: functional.
A further assay has as its target Tumor necrosis factor (Homo sapiens, UniProt P01375). As to the kind of experiment: analog potency on TNFa NF-kB signaling – cell-based, revised, SAR follow-up (AID 2337). Type of assay: functional.
Assay [21] has as its target Neuropeptide Y receptor type 2 (Homo sapiens, UniProt P49146). As to the kind of experiment: Fluorescence-based cell-based high-throughput dose response assay for agonists of NPY-Y2. [Related pubchem assays: 1703 (Screening assay (CNGC inhibitors).), 1359 (Screening assay (NPY-Y2 potentiators or agonists).), 1304 (Screening assay (NPY-Y1 potentiators or agonists).), 1710 (Screening assay (NPY-Y2 agonists).), 1791 (Summary AID.)]. Type of assay: functional.

The next assay concerns Vero. Description: cells. Type of assay: functional. To be noted: Chlorocebus sabaeus.
In assay [22] the target is Neuropeptide Y receptor type 1 (Homo sapiens, UniProt P25929). As to the kind of experiment: Fluorescence-based counterscreen for agonists of NPY-Y2: cell-based high-throughput dose response assay for agonists of NPY-Y1. Type of assay: functional.
Chain of Neuropeptide Y receptor type 1 (P25929 whole entry): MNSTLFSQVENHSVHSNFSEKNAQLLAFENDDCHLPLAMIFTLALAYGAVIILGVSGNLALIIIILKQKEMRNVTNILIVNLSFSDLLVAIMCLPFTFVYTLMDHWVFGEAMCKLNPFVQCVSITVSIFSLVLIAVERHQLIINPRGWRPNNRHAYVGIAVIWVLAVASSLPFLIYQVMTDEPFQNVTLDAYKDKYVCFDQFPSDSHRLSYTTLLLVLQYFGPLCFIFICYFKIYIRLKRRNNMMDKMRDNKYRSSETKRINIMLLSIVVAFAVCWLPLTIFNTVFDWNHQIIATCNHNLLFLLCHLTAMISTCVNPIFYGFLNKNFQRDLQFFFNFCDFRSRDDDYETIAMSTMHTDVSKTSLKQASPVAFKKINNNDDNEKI
The nature of assay [23]: decrease of insulin promoter-GFP reporter – imaging, high-content screening, mouse beta cells (AID 1628). Type of assay: functional. The settings on record: MIN6.
The nature of assay [24]: MIN6 cell viability loss – mouse insulinoma, cytotoxicity control, dose response (AID 2122).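 Note: confirmatory high-throughput counterscreen run to flag cytotoxic compounds.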 Type of assay: functional.
Assay [25] relates to HEK293. Description: cells. The settings on record: Homo sapiens.
The subject of assay [26] is HEK293. As to the kind of experiment: Fluorescence-based counterscreen for potentiators or agonists of NPY-Y2: cell-based high-throughput dose response assay to identify inhibitors of cyclic nucleotide gated ion channel (CNGC) activity. In this assay, the parental HEK293 cell line transfected with a cyclic-nucleotide gated ion channel (CNGC)-based cAMP sensor is used to measure inhibition of isoproterenol-induced CNGC activity by test compound. Type of assay: functional. To be noted: Homo sapiens.

Assay [27] deals with T3, Nucleotide-binding oligomerization domain-containing protein 1 (Homo sapiens, UniProt Q9Y239).
T3 sequence (Q9Y239 whole entry): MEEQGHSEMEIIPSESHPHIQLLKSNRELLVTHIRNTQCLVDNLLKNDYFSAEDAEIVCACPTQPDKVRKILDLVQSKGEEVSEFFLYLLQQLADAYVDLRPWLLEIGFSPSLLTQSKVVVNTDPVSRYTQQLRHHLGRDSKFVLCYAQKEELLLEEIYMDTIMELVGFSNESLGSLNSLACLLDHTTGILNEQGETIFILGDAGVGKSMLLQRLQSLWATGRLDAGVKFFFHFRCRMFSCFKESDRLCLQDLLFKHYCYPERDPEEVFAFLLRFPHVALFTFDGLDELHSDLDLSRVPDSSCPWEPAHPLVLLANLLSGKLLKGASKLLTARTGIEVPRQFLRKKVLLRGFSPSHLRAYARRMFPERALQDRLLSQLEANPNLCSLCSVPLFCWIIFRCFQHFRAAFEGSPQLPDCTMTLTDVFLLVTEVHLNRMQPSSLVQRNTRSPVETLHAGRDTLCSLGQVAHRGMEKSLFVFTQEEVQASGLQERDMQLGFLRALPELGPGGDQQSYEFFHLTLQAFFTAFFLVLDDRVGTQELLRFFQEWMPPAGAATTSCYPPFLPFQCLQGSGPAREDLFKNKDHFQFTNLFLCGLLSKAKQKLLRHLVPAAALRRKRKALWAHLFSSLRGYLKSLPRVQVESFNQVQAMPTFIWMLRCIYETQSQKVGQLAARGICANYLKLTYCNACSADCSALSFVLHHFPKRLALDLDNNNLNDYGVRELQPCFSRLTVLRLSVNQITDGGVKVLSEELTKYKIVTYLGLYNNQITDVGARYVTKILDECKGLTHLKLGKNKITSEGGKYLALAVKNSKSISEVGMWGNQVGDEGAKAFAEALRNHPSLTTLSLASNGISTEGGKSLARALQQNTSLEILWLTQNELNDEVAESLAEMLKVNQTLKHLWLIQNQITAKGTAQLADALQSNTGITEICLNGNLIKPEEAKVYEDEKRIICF
As to the kind of experiment: blockers of NOD1 pathway activity – revised, SAR follow-up (AID 2333). Type of assay: functional.

Active and inactive are the calls of the source.

What is called IC50 is the concentration at which inhibition is half-maximal. One may read the EC50 as the midpoint of the concentration-response curve. One may read the AC50 as the concentration giving half of the maximal activity seen.

Chain of Neuropeptide Y receptor type 2 (P49146 whole entry): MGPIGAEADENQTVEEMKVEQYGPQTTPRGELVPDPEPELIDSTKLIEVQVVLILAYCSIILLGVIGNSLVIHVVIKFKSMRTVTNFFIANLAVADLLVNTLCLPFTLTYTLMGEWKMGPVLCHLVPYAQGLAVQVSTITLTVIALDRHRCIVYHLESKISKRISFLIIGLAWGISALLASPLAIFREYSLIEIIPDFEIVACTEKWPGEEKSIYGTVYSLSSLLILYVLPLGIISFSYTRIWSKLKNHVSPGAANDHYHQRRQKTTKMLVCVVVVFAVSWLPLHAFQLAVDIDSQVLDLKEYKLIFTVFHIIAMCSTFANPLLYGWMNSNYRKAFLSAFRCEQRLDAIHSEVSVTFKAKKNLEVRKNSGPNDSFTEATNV
Chain of Photoreceptor-specific nuclear receptor (Q9Y5X4 whole entry): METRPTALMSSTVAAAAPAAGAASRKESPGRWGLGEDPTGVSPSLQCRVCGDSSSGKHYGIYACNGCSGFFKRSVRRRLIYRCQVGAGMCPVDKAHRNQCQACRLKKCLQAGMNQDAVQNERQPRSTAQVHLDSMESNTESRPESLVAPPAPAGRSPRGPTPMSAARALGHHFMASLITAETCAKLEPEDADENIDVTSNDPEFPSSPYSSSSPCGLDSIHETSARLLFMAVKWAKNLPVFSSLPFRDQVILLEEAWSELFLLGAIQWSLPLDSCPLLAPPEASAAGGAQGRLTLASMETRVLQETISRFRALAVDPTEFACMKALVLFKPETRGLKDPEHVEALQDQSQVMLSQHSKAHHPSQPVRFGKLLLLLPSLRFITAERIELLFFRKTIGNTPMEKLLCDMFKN
Chain of Lysosomal acid glucosylceramidase (P04062 whole entry): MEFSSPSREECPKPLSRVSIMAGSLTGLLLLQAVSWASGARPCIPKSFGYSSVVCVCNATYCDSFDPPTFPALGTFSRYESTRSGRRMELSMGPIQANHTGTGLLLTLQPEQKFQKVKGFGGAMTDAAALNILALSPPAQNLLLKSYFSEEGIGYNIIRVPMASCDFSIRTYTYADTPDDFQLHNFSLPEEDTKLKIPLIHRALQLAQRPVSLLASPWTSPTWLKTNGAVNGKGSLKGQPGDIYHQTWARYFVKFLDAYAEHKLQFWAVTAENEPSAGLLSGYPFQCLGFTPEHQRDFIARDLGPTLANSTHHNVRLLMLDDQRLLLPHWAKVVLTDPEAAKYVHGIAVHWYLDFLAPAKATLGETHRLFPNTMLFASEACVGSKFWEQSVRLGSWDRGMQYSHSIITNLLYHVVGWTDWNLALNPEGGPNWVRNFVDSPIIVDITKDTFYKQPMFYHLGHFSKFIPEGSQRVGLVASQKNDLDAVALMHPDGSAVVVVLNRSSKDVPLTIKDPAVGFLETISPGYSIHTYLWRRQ

In the case of `CCc1ccc(S(=O)(=O)c2nnn3c2nc(O)c2ccccc23)cc1`, in the assay on Staphylococcus aureus, the IC50 was 0.244 µM (active).

Take `Cc1ccc2[nH]cc(C(=O)CCl)c2c1`: the IC50 in assay [1] and in assay [2] was > 50 µM (not active) each time.

As for `CC(C)Cc1c2c([nH]c(=S)c1C#N)CCCC2`, the IC50 in assay [3] was 6.27 µM (active); in assay [4] it was > 39.8 µM (not active).

For `COc1ccc(CNC(=O)CN(CC2CCCO2)C(=O)CNS(=O)(=O)c2ccc(C)cc2)cc1` (stereo not drawn), the figures for the EC50 (in assay [5]; in “cells [6]”; in “cells [7]”) were > 50 µM (not active), > 350 µM (not active) and > 350 µM (not active), respectively.

Consider `[O-][n+]1onc2c3cc(-c4ccccc4)[nH]c3ccc21`, for which the half-inhibitory concentration (IC50) is 0.67 µM (active) in “cells [8]” and 1.59 µM (not active) in assay [10]. For the same molecule, in the assay on INS1, the AC50 was 2.52 µM (active). Also, the EC50 in assay [9] was 0.65 µM (active); on Wee1-like protein kinase, > 1.84 µM (active); in assay [12] it was > 49.7 µM (not active); in [15], 4.16 µM (active); in assay [16], 9.83 µM (active); in assay [18] it was 0.597 µM (active). The CC50 is 2.6 µM (active) in assay [11], 1.57 µM (active) in [13], 1.47 µM (active) in [14] and 1.27 µM (active) in assay [17].

Regarding `COc1ccc2nc(NC(=O)CSc3nnc(C)n3N)sc2c1`, the EC50 in [19] and in [20] was > 55.7 µM (not active) in each case.

For `O=C(Nc1cccc([N+](=O)[O-])c1)c1cc2ccccc2cc1O`, the AC50 in the assay on INS1 is 3.67 µM (active). Also, the IC50 on Tumor necrosis factor is 2.2 µM (active); in assay [23], 2.73 µM (active); in assay [24], 2.72 µM (active); in the assay with HEK293 [25], 11.8 µM (active); in assay [27], 1.48 µM (active). Also, the EC50 (in [21]; in assay [22]; in the assay with HEK293 [26]) was > 35.4 µM (not active) throughout. The CC50 with Vero is 3.95 µM (active).
